Our source for the Kp and oral bioavailability values is US9938284B2, “Organic compounds” (INTRA-CELLULAR THERAPIES, INC., priority 2014, dated 2018).

SMILES strings stand for the structures.

The series can be described thus: Pharmacokinetic analysis in mice, plasma and brain levels by LC-MS/MS. It is filed as in vivo. To be noted: male C57 BL/6 mice, 10 mg/kg oral (PO). The protocol:
Pharmacokinetic Analysis of the Compounds of the Invention
Animals: Male, C57 BL/6 mice (Jackson Labs, 25-30 g in body weight) are provided by Jackson Laboratories. Up to five mice are housed per cage and are maintained under a 12 hour light/dark cycle with access to food and water ad libitum. All procedures for the handling and use of animals follow the guidelines of the Institutional Animal Care and Use Committee (IACUC) of Columbia University, in accordance with NIH guidelines. Eight week-old mice (N=3/dose level or treatment group) are used in the experiments.
Experimental Treatment: Compounds: Selected Compounds of the Invention are evaluated in the present study. […]
Compound Preparation: Powdered stocks of the test compound(s) are measured and dissolved in 3% 1N HCl, 5% Labrasol and 92% of 5% TPGS in 0.05M Citrate buffer (CB, pH 4.0). […]
Treatment of Animals: Mice (N=3 mice/dose/time point) receive a 10 mg/kg oral (PO) dose of the test compound(s) at time 0. […] Plasma and brain tissue samples are processed and analyzed by the analytical group using LC-MS/MS methods, as described below. […]
Each tube is vortexed, then centrifuged for 20 min at 15000 rpm using a Tomy benchtop centrifuge at 4° C. Standard is an internal standard used for LC-MS/MS quantitation. […]
RESULTS: Plasma and Brain Analysis: All the test compound(s) tested could be detected and analyzed when spiked into control plasma. […]

Regarding `Cc1nnc2n(C)c(=O)c3c(Nc4ccccc4)n(Cc4ccc(-c5cccc(F)n5)cc4)nc3n12` [Example 2, 2-(4-(6-Fluoro-pyridin-2-yl)-benzyl)-5,8-dimethyl-3-phenylamino-2H,5H-pyrazolo[4,3-e][1,2,4]triazolo[4,3-a]pyrimidin-4-one], the oral bioavailability result is recorded as “display oral bioavailability”. Moreover, the Kp (C57BL/6, mouse, brain/plasma, 0.25-2 h, read-out: B/P ratio (Brain AUC(0-2h)/Plasma AUC(0-2h))) was not above 0.15.
